Reference: patent US4684664A, “Derivatives of β-(4-isocyano-1,2,3,4-diepoxycyclopentyl) acrylic acid” (Kureha Kagaku Kogyo Kabushiki Kaisha, priority 1984, dated 1987)
In brackets after ≈: the same amount, converted by molar mass.

How the values were obtained:
[1] = tested on: Pseudomonas aeruginosa IFO 3445; assay: Antibacterial activity, agar-dilution MIC, organism No. 15; assay type: cell-based; conditions: Pseudomonas aeruginosa, IFO3445; Organism No. 15, bouillon-agar; read-out: Minimum Inhibitory Concentration
Summary of the method: (§1)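 MICs were determined by agar dilution on bouillon-agar medium. The value is the minimum concentration of specimen inhibiting growth, expressed as μg/ml of culture medium.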

[2] = tested on: Escherichia coli NIHJ-JC-2; assay: Antibacterial activity, agar-dilution MIC, organism No. 5; assay type: cell-based; conditions: Escherichia coli, NIHJJC2; Organism No. 5, bouillon-agar; read-out: Minimum Inhibitory Concentration
Summary of the method: as §1

[3] = tested on: Streptococcus faecium IFO 3826; assay: Antibacterial activity, agar-dilution MIC, organism No. 27; assay type: cell-based; conditions: Enterococcus faecium, IFO3826; Organism No. 27, bouillon-agar; read-out: Minimum Inhibitory Concentration
Summary of the method: as §1

[4] = tested on: Proteus mirabilis IFO 3849; assay: Antibacterial activity, agar-dilution MIC, organism No. 19; assay type: cell-based; conditions: Proteus mirabilis, IFO3849; Organism No. 19, bouillon-agar; read-out: Minimum Inhibitory Concentration
Summary of the method: as §1

[5] = tested on: Salmonella shottmuelleri 8006; assay: Antibacterial activity, agar-dilution MIC, organism No. 11; assay type: cell-based; conditions: Salmonella, 8006; Organism No. 11, bouillon-agar; read-out: Minimum Inhibitory Concentration
Summary of the method: as §1

Proteus vulgaris OX-19 = assay: Antibacterial activity, agar-dilution MIC, organism No. 20; assay type: cell-based; conditions: Proteus vulgaris, OX19; Organism No. 20, bouillon-agar; read-out: Minimum Inhibitory Concentration
Summary of the method: as §1

[6] = tested on: Micrococcus luteus ATCC 9341; assay: Antibacterial activity, agar-dilution MIC, organism No. 25; assay type: cell-based; conditions: Micrococcus luteus, ATCC9341; Organism No. 25, bouillon-agar; read-out: Minimum Inhibitory Concentration
Summary of the method: as §1

[7] = tested on: Streptococcus pyogenes Cook; assay: Antibacterial activity, agar-dilution MIC, organism No. 4; assay type: cell-based; conditions: Streptococcus pyogenes; Organism No. 4, bouillon-agar; read-out: Minimum Inhibitory Concentration
Summary of the method: as §1

[8] = tested on: Serratia marcescens IAM 1184; assay: Antibacterial activity, agar-dilution MIC, organism No. 13; assay type: cell-based; conditions: Serratia marcescens, IAM1184; Organism No. 13, bouillon-agar; read-out: Minimum Inhibitory Concentration
Summary of the method: as §1

[9] = tested on: Escherichia coli K12 C600 IAM 1264; assay: Antibacterial activity, agar-dilution MIC, organism No. 6; assay type: cell-based; conditions: Escherichia coli, IAM1264; Organism No. 6, bouillon-agar; read-out: Minimum Inhibitory Concentration
Summary of the method: as §1

[10] = tested on: Proteus rettgeri IFO 3850; assay: Antibacterial activity, agar-dilution MIC, organism No. 22; assay type: cell-based; conditions: Providencia rettgeri, IFO3850; Organism No. 22, bouillon-agar; read-out: Minimum Inhibitory Concentration
Summary of the method: as §1

[11] = tested on: Klebsiella pneumoniae PCI-602; assay: Antibacterial activity, agar-dilution MIC, organism No. 7; assay type: cell-based; conditions: Klebsiella pneumoniae, PCI602; Organism No. 7, bouillon-agar; read-out: Minimum Inhibitory Concentration
Summary of the method: as §1

Salmonella typhi 901 = assay: Antibacterial activity, agar-dilution MIC, organism No. 9; assay type: cell-based; conditions: Salmonella enterica, TYPHI, read-out: Minimum Inhibitory Concentration
Summary of the method: as §1

[12] = tested on: Enterobacter aerogenes ATCC 13048; assay: Antibacterial activity, agar-dilution MIC, organism No. 23; assay type: cell-based; conditions: Klebsiella aerogenes, ATCC13048; Organism No. 23, bouillon-agar; read-out: Minimum Inhibitory Concentration
Summary of the method: as §1

[13] = tested on: Proteus morganii IFO 3848; assay: Antibacterial activity, agar-dilution MIC, organism No. 18; assay type: cell-based; conditions: Morganella morganii, IFO3848; Organism No. 18, bouillon-agar; read-out: Minimum Inhibitory Concentration
Summary of the method: as §1

[14] = tested on: Streptococcus pyogenes IFO 3340; assay: Antibacterial activity, agar-dilution MIC, organism No. 26; assay type: cell-based; conditions: Streptococcus pyogenes, IFO3340; Organism No. 26, bouillon-agar; read-out: Minimum Inhibitory Concentration
Summary of the method: as §1

[15] = tested on: Salmonella paratyphi-A 1015; assay: Antibacterial activity, agar-dilution MIC, organism No. 10; assay type: cell-based; conditions: Salmonella enterica, PARATYPHI, read-out: Minimum Inhibitory Concentration
Summary of the method: as §1

[16] = tested on: Staphylococcus aureus FDA 209PJc-1; assay: Antibacterial activity, agar-dilution MIC, organism No. 1; assay type: cell-based; conditions: Staphylococcus aureus, FDA209PJC1; Organism No. 1, bouillon-agar; read-out: Minimum Inhibitory Concentration
Summary of the method: as §1

[17] = tested on: Aspergillus niger IFO 6342; assay: Antifungal activity, agar-dilution MIC, organism No. 30; assay type: cell-based; conditions: Aspergillus niger, IFO6342; Organism No. 30, bouillon-agar; read-out: Minimum Inhibitory Concentration
Summary of the method: as §1

Enterobacter cloacae 963 = assay: Antibacterial activity, agar-dilution MIC, organism No. 24; assay type: cell-based; conditions: Enterobacter cloacae, 963; Organism No. 24, bouillon-agar; read-out: Minimum Inhibitory Concentration
Summary of the method: as §1

[18] = tested on: Pseudomonas aeruginosa NCTC 10490; assay: Antibacterial activity, agar-dilution MIC, organism No. 16; assay type: cell-based; conditions: Pseudomonas aeruginosa, NCTC10490; Organism No. 16, bouillon-agar; read-out: Minimum Inhibitory Concentration
Summary of the method: as §1

[19] = tested on: Mycoplasma pneumoniae IID817; assay: Antimycoplasmal activity, MIC by phenol red colour change, organism No. 28; assay type: cell-based; conditions: Mycoplasma, IID817; Organism No. 28, PPLO broth + 1% glucose, 37° C.; read-out: Minimum Inhibitory Concentration (MIC)
Method: Mycoplasma pneumoniae IID817 was used as the test microorganism in a culture medium prepared by adding 1% of glucose to "PPLO broth (manufactured by Difco Co.) liquid culture medium" at 37° C. with phenol red as an indicator, thereby culturing the test microorganism.

[20] = tested on: Salmonella typhimurium IID 971; assay: Antibacterial activity, agar-dilution MIC, organism No. 8; assay type: cell-based; conditions: Salmonella enterica; Organism No. 8, bouillon-agar; read-out: Minimum Inhibitory Concentration
Summary of the method: as §1

Proteus vulgaris HX-19 = assay: Antibacterial activity, agar-dilution MIC, organism No. 21; assay type: cell-based; conditions: Proteus vulgaris, HX19; Organism No. 21, bouillon-agar; read-out: Minimum Inhibitory Concentration
Summary of the method: as §1

[21] = tested on: Salmonella enteritidis G 14; assay: Antibacterial activity, agar-dilution MIC, organism No. 12; assay type: cell-based; conditions: Salmonella enterica, ENTERITIDIS; Organism No. 12, bouillon-agar; read-out: Minimum Inhibitory Concentration
Summary of the method: as §1

[22] = tested on: Bacillus subtilis ATCC 6633; assay: Antibacterial activity, agar-dilution MIC, organism No. 14; assay type: cell-based; conditions: Bacillus subtilis, ATCC6633; Organism No. 14, bouillon-agar; read-out: Minimum Inhibitory Concentration
Summary of the method: as §1

[23] = tested on: Staphylococcus aureus Terajima; assay: Antibacterial activity, agar-dilution MIC, organism No. 2; assay type: cell-based; conditions: Staphylococcus aureus; Organism No. 2, bouillon-agar; read-out: Minimum Inhibitory Concentration
Summary of the method: as §1

[24] = Stability in a non-solvent state; assay type: physicochemical
[25] = tested on: Pseudomonas aeruginosa PAO 1; assay: Antibacterial activity, agar-dilution MIC, organism No. 17; assay type: cell-based; conditions: Pseudomonas aeruginosa, PAO1; Organism No. 17, bouillon-agar; read-out: Minimum Inhibitory Concentration
Summary of the method: as §1

[26] = tested on: Candida albicans IAM 4905; assay: Antifungal activity, agar-dilution MIC, organism No. 29; assay type: cell-based; conditions: Candida albicans, IAM4905; Organism No. 29, bouillon-agar; read-out: Minimum Inhibitory Concentration
Summary of the method: as §1

[27] = tested on: Staphylococcus aureus MS 353; assay: Antibacterial activity, agar-dilution MIC, organism No. 3; assay type: cell-based; conditions: Staphylococcus aureus, MS353; Organism No. 3, bouillon-agar; read-out: Minimum Inhibitory Concentration
Summary of the method: as §1

Structure (SMILES)	MIC [1]	MIC [2]	MIC [3]	MIC [4]	MIC [5]	MIC (Proteus vulgaris OX-19)	MIC [6]	MIC [7]	MIC [8]	MIC [9]	MIC [10]	MIC [11]	MIC (Salmonella typhi 901)	MIC [12]	MIC [13]	MIC [14]	MIC [15]	MIC [16]	MIC [17]	MIC (Enterobacter cloacae 963)	also measured
[C-]#[N+]C12CC3(/C=C/C(=O)OCc4cc([N+](=O)[O-])ccc4O)OC3C1O2 (stereo not shown) [Compound No. 17]	> 200 µg/mL	> 200 µg/mL	> 200 µg/mL	> 200 µg/mL	> 200 µg/mL	> 200 µg/mL	200 µg/mL (≈ 581 µM)	> 200 µg/mL	> 200 µg/mL	> 200 µg/mL	> 200 µg/mL	> 200 µg/mL	200 µg/mL (≈ 581 µM)	> 200 µg/mL	> 200 µg/mL	> 200 µg/mL	> 200 µg/mL	> 200 µg/mL	> 100 µg/mL	> 200 µg/mL	MIC [18]: > 200 µg/mL; MIC [19]: 100 µg/mL; MIC [20]: > 200 µg/mL; MIC (Proteus vulgaris HX-19): > 200 µg/mL; MIC [21]: > 200 µg/mL; MIC [22]: > 200 µg/mL; MIC [23]: > 200 µg/mL; stability (in words) [24]: tendency thereof of decomposition in a non-solvent state; MIC [25]: > 200 µg/mL; MIC [26]: > 100 µg/mL; MIC [27]: > 200 µg/mL
[C-]#[N+]C12CC3(/C=C/C(=O)NOCc4ccccc4)OC3C1O2 (stereo not shown) [compound 82]	> 200 µg/mL	12.5 µg/mL (≈ 41.9 µM)	1.56 µg/mL (≈ 5.23 µM)	> 200 µg/mL	0.78 µg/mL (≈ 2.61 µM)	0.2 µg/mL (≈ 0.67 µM)	12.5 µg/mL (≈ 41.9 µM)	0.78 µg/mL (≈ 2.61 µM)	> 200 µg/mL	12.5 µg/mL (≈ 41.9 µM)	> 200 µg/mL	0.39 µg/mL (≈ 1.31 µM)	0.78 µg/mL (≈ 2.61 µM)	> 200 µg/mL	0.78 µg/mL (≈ 2.61 µM)	1.56 µg/mL (≈ 5.23 µM)	0.78 µg/mL (≈ 2.61 µM)	< 0.05 µg/mL	3.13 µg/mL (≈ 10.5 µM)	> 200 µg/mL	MIC [18]: > 200 µg/mL; MIC [19]: < 0.2 µg/mL; MIC [20]: 6.25 µg/mL (≈ 21 µM); MIC (Proteus vulgaris HX-19): 0.1 µg/mL (≈ 0.335 µM); MIC [21]: 0.78 µg/mL (≈ 2.61 µM); MIC [22]: 6.25 µg/mL (≈ 21 µM); MIC [23]: 0.2 µg/mL (≈ 0.67 µM); MIC [25]: > 200 µg/mL; MIC [26]: 0.39 µg/mL (≈ 1.31 µM); MIC [27]: < 0.05 µg/mL
[C-]#[N+]C12CC3(/C=C/C(=O)O)OC3C1O2 (stereo not drawn) [α substituted acrylic acid, β-(4-isocyano-1,2-3,4-diepoxycyclopentyl)acrylic acid, reference compound]	200 µg/mL (≈ 1040 µM)	12.5 µg/mL (≈ 64.7 µM)	50 µg/mL (≈ 259 µM)	12.5 µg/mL (≈ 64.7 µM)	12.5 µg/mL (≈ 64.7 µM)	6.25 µg/mL (≈ 32.4 µM)	12.5 µg/mL (≈ 64.7 µM)	25 µg/mL (≈ 129 µM)	50 µg/mL (≈ 259 µM)	12.5 µg/mL (≈ 64.7 µM)	50 µg/mL (≈ 259 µM)	50 µg/mL (≈ 259 µM)	6.25 µg/mL (≈ 32.4 µM)	200 µg/mL (≈ 1040 µM)	12.5 µg/mL (≈ 64.7 µM)	6.25 µg/mL (≈ 32.4 µM)	12.5 µg/mL (≈ 64.7 µM)	25 µg/mL (≈ 129 µM)	25 µg/mL (≈ 129 µM)	100 µg/mL (≈ 518 µM)	MIC [18]: 200 µg/mL (≈ 1040 µM); MIC [19]: < 0.2 µg/mL; MIC [20]: 12.5 µg/mL (≈ 64.7 µM); MIC (Proteus vulgaris HX-19): 6.25 µg/mL (≈ 32.4 µM); MIC [21]: 3.13 µg/mL (≈ 16.2 µM); MIC [22]: 25 µg/mL (≈ 129 µM); MIC [23]: 50 µg/mL (≈ 259 µM); MIC [25]: 200 µg/mL (≈ 1040 µM); MIC [26]: 12.5 µg/mL (≈ 64.7 µM); MIC [27]: 25 µg/mL (≈ 129 µM)
